Where two headings read alike, the source gives them in different places.
Key:
[1] = MT-4 proliferation assay in 384-well format (Cell Titer Glo); format: cell-based, human; details: human, MT-4 cells, Table 2, 50% decrease in luminescence signal, read-out: CC50 MT4 384
Experimental: Compounds were tested in a standardized high-throughput 384-well assay format. Each compound was serially diluted 3-fold in 100% DMSO in polypropylene 384-well plates using a Biomek FX Workstation, and 0.4 μL compound added to an assay plate containing 40 μL RPMI media. Compounds were arranged in a horizontal pattern, with 10 concentrations per compound, and 8 compounds added per plate. Due to low DMSO tolerability, the final DMSO concentration never exceeded 0.5% (v/v). Each assay plate contained 10 μM Puromycin and 0.5% DMSO in RPMI-1640 as positive and negative controls respectively. MT-4 cells (HTLV-1 transformed, human T lymphoblastoid cells, NIH Aids Reagent program) were added in volumes of 35 μL per well and 2,000 cells per well using a Biotek uFlow Workstation (Biotek, Winooski, Vt.), and the plates subsequently incubated for 5 days at 37° C. in an incubator set at 5% CO2 and 90% humidity.
After 5 days, 22 μL Cell Titer Glo (Promega) was added to the assay plates with a Biotek uFlow Workstation. Plates were subsequently placed on a Perkin Elmer Envision Plate Reader for 5 minutes before the luminescence signal was read. CC50 values were calculated from the compound concentration that caused a 50% decrease in luminescence signal, a measure of toxicity, and calculated by non-linear regression using Pipeline Pilot software (Accelrys, San Diego, Calif.).

BRD4-1 = biological target: T1, BRD4-1 (Homo sapiens, UniProt O60885); experiment: BRD4-1 Ligand KI assay (TR-FRET displacement of Cy5 labeled probe); format: binding
T1 construct: made in house; host or cells: Escherichia coli
Experimental: Binding of the two tandem bromodomains, BRD4-I and BRD4-2, to a Cy5 labeled probe/ligand (Compound 201-A) were measured using a homogeneous time resolved fluorescence resonance energy transfer (TR-FRET) assay.
(§1) The labeled ligand specifically binds BRD4-1 and BRD4-2 and can be displaced by a small molecule inhibitor that shares a similar or overlapping binding site. BRD4-I and BRD4-2 were expressed and purified from Escherichia coli as N-terminal His6-tagged proteins. A Eu-cryptate labeled anti-His antibody (Perkin Elmer) was used to specifically bind BRD4. […] Assays were performed in 50 mM Hepes (pH 7.5), 150 mM NaCl, 0.1 mg/ml BSA, 0.01% (v/v) Brij, 0.5% (v/v) DMSO and 10 nM labeled ligand at the following concentrations for each BRD4 isoform: 2 nM BRD4-1 and 0.5 nM BRD4-2. After an assay reaction time of 60 minutes at 25° C., binding was measured with 2 nM Eu-cryptate labeled anti-His antibody. TR-FRET signal was detected on an Envision plate reader (Ex: 320 nm; Em: 615/665 nm; 100 μs delay and 200 μs read window). Data were normalized based on a positive (2 μM I-BET) and negative (DMSO) controls and IC50 values were calculated from the fit of the dose-response curves to a four-parameter equation. All IC50 values represent geometric mean values of a minimum of four determinations. The IC50 values were converted to Ki values (dissociation constant for BRD4-inhibitor complex) using the Cheng and Prusoff equation for a competitive inhibitor mode of action. These assays generally produced results within 3-fold of the reported mean.

BRD4-2 = biological target: T2, BRD4-2 (Homo sapiens, UniProt O60885); experiment: BRD4-2 Ligand KI assay (TR-FRET displacement of Cy5 labeled probe); format: binding
T2 construct: made in house; host or cells: Escherichia coli
Experimental: as §1, with “BRD4-I” for “The labeled ligand specifically binds BRD4-1 and BRD4-2 and can be displaced by a small molecule inhibitor that shares a similar or overlapping binding site. BRD4-I”, “action.” for “action. These assays generally produced results within 3-fold of the reported mean.”

[2] = system: c-Myc produced in MM1S cells; experiment: c-Myc down regulation assay (MSD ELISA) in MM1S cells; format: cell-based; details: Homo sapiens, MM1.S, 24 hrs incubation, geometric mean, read-out: cMYC EC50
Experimental: An enzyme linked immunosorbent assay using the Meso Scale Diagnostic (MSD) technology was used to detect levels of c-Myc produced in MM1S cells (ATCC). MM1S cells were cultured in RPMI-1640 media (Corning), supplemented with 10% FBS (Hyclone), 1% penicillin-streptomycin (Cellgro), 2-mercaptoethanol (Gibco) and seeded onto 384-tissue culture treated filter binding plates (Millipore) at a density of 40K cells/well containing titrations of small molecule inhibitors or DMSO (0.4%) in a volume of 100 μl of media. After an incubation time of 24 hrs, cells were lysed (1× lysis buffer (Thermo) supplemented with protease and phosphatase inhibitor cocktail (Thermo)) and the plates centrifuged (1000 rpm, 1 min) to capture c-Myc on MSD plates coated with a monoclonal c-Myc antibody (Origene). Assay wells were washed (3× Invitrogen wash buffer) and probed with a polyclonal c-Myc antibody (Abcam) and MSD detection antibody solution in order to detect levels of c-Myc on the MSD platform. c-Myc capture was reported in pg/ml based on a standard curve using recombinant c-Myc protein (Prosci). EC50 values were calculated from the fit of the dose-response curves to a four-parameter equation. All EC50 values represent geometric mean values of a minimum of four determinations. These assays generally produced results within 3-fold of the reported mean.

[3] = 10 nM labeled ligand, 2 nM BRD4-1, Ki from IC50 by Cheng and Prusoff, read-out: BRD4-1 Ligand K1
[4] = 10 nM labeled ligand, 0.5 nM BRD4-2, Ki from IC50 by Cheng and Prusoff, read-out: BRD4-2 Ligand K2

Structure (SMILES)	CC50 at 5 days [1]	Ki (BRD4-1; [3])	Ki (BRD4-2; [4])	EC50 [2]	Ki (BRD4-1)	Ki (BRD4-2)
Cc1noc(C)c1-c1cc(C(O)(c2ccccc2)c2ccccn2)c2[nH]c(=O)[nH]c2c1 (centres unmarked) [Example 149, 6-(3,5-dimethylisoxazol-4-yl)-4-(hydroxy(phenyl)(pyridin-2-yl)methyl)-H benzo[d]imidazol-2(3H)-one]	17.5 nM	17.3 nM	4.6 nM	73.8 nM	–	–
Cc1noc(C)c1-c1cc(C(O)(CCC(F)(F)F)c2ccccn2)c2[nH]c(=O)[nH]c2c1 (centres unmarked) [Example 140, 6-(3,5-dimethylisoxazol-4-yl)-4-(4,4,4-trifluoro-1-hydroxy-1-(pyridin-2-yl)butyl)-1H-benzo[d]imidazol-2(3H)-one]	78.3 nM	35.2 nM	43.8 nM	217 nM	–	–
Cc1noc(C)c1-c1cc(C(O)(c2cnccn2)c2c(F)cc(F)cc2F)c2[nH]c(=O)[nH]c2c1 (centres unmarked) [Example 56, 6-(3,5-dimethylisoxazol-4-yl)-4-(hydroxy(pyrazin-2-yl)(2,4,6-trifluorophenyl)methyl)-1H-benzo[d]imidazol-2(3H)-one]	24.8 nM	6 nM	3.6 nM	40.9 nM	–	–
Cc1noc(C)c1-c1cc(C(O)(c2cnccn2)c2c(F)cccc2F)c2[nH]c(=O)[nH]c2c1 (centres unmarked) [Example 49, 4-((2,6-difluorophenyl)(hydroxy)(pyrazin-2-yl)methyl)-6-(3,5-dimethylisoxazol-4-yl)-1H-benzo[d]imidazol-2(3H)-one]	9.7 nM	8.1 nM	–	–	–	–
Cc1noc(C)c1-c1cc(C(O)(c2ccccn2)C2CCCCC2)c2[nH]c(=O)[nH]c2c1 (centres unmarked) [Example 144, 4-(cyclohexyl(hydroxy)(pyridin-2-yl)methyl)-6-(3,5-dimethylisoxazol-4-yl)-1H-benzo[d]imidazol-2(3H)-one]	–	7.7 nM	2.7 nM	–	–	–
Cc1noc(C)c1-c1cc(C(O)(c2ccc(F)cn2)c2ccc(F)cc2F)c2[nH]c(=O)[nH]c2c1 (centres unmarked) [Example 39, 4-((2,4-difluorophenyl)(5-fluoropyridin-2-yl)(hydroxy)methyl)-6-(3,5-dimethylisoxazol-4-yl)-1H-benzo[d]imidazol-2(3H)-one]	42.1 nM	11.8 nM	5.9 nM	128 nM	–	–
Cc1noc(C)c1-c1cc(C(O)(c2ccc(F)cn2)c2c(F)cc(F)cc2F)c2[nH]c(=O)[nH]c2c1 (centres unmarked) [Example 52, 6-(3,5-dimethylisoxazol-4-yl)-4-((5-fluoropyridin-2-yl)(hydroxy)(2,4,6-trifluorophenyl)methyl)-1H-benzo[d]imidazol-2(3H)-one]	36.1 nM	8.9 nM	6.4 nM	135 nM	–	–
Cc1cccc(C(O)(c2ccccn2)c2cc(-c3c(C)noc3C)cc3[nH]c(=O)[nH]c23)n1 (centres unmarked) [Example 147, 6-(3,5-dimethylisoxazol-4-yl)-4-(hydroxy(6-methylpyridin-2-yl)(pyridin-2-yl)methyl)-1H-benzo[d]imidazol-2(3H)-one]	56.5 nM	81.6 nM	16 nM	107 nM	–	–
Cc1noc(C)c1-c1cc(C(O)(c2ccc(F)cn2)c2c(F)cccc2F)c2[nH]c(=O)[nH]c2c1 (centres unmarked) [Example 38, 4-((2,6-difluorophenyl)(5-fluoropyridin-2-yl)(hydroxy)methyl)-6-(3,5-dimethylisoxazol-4-yl)-1H-benzo[d]imidazol-2(3H)-one]	29.7 nM	7.8 nM	4.4 nM	84.7 nM	–	–
Cc1noc(C)c1-c1cc(C(O)(c2ccccn2)c2ccc3ccc(F)cc3n2)c2[nH]c(=O)[nH]c2c1 (centres unmarked) [Example 36, 6-(3,5-dimethylisoxazol-4-yl)-4-((7-fluoroquinolin-2-yl)(hydroxy)(pyridin-2-yl)methyl)-1H-benzo[d]imidazol-2(3H)-one]	29.1 nM	14.1 nM	5.3 nM	176 nM	–	–
Cc1noc(C)c1-c1cc(C(O)(c2ccccn2)c2ccc(Cl)cn2)c2[nH]c(=O)[nH]c2c1 (centres unmarked) [Example 54, 4-((5-chloropyridin-2-yl)(hydroxy)(pyridin-2-yl)methyl)-6-(3,5-dimethylisoxazol-4-yl)-1H-benzo[d]imidazol-2(3H)-one]	27.1 nM	–	–	111 nM	22.7 nM	14.1 nM
Cc1noc(C)c1-c1cc(-c2c(C3CC3)n[nH]c2C2CC2)c2[nH]c(=O)[nH]c2c1 [Example 23, 4-(3,5-dicyclopropyl-1H-pyrazol-4-yl)-6-(3,5-dimethylisoxazol-4-yl)-1H-benzo[d]imidazol-2(3H)-one]	9.1 nM	12.9 nM	3 nM	13.2 nM	–	–
Cc1noc(C)c1-c1cc(C(O)(CC(C)(C)C)c2ccccn2)c2[nH]c(=O)[nH]c2c1 (centres unmarked) [Example 143, 6-(3,5-dimethylisoxazol-4-yl)-4-(1-hydroxy-3,3-dimethyl-1-(pyridin-2-yl)butyl)-1H-benzo[d]imidazol-2(3H)-one]	20.4 nM	29.3 nM	8 nM	118 nM	–	–
Cc1noc(C)c1-c1cc(-c2cccnc2C2CC2)c2[nH]c(=O)[nH]c2c1 [Example 73, 4-(2-cyclopropylpyridin-3-yl)-6-(3,5-dimethylisoxazol-4-yl)-1H-benzo[d]imidazol-2(3H)-one]	61 nM	34.2 nM	24 nM	154 nM	–	–
Cc1cccc(C(O)(c2cccc(C)n2)c2cc(-c3c(C)noc3C)cc3[nH]c(=O)[nH]c23)n1 [Example 134]	19.1 nM	69.9 nM	5.3 nM	74.4 nM	–	–
Cc1noc(C)c1-c1cc(C(O)(c2cccnn2)c2c(F)cccc2F)c2[nH]c(=O)[nH]c2c1 (centres unmarked) [Example 50, 4-((2,6-difluorophenyl)(hydroxy)(pyridazin-3-yl)methyl)-6-(3,5-dimethylisoxazol-4-yl)-1H-benzo[d]imidazol-2(3H)-one]	16 nM	8.7 nM	5.9 nM	–	–	–
